The values that follow come from the NIST ThermoML archive (doi:10.1021/je100407f).

For the data set the following is noted: 101 kPa, Liquid mixture 1, Ring tensiometer.

Several values for one entry are separate records, joined by “and”; a condition that tells them apart may be missing. Identical values can stand only once. Numbers after ± are expanded uncertainties.

On to `CCCCn1cc[n+](C)c1.F[P-](F)(F)(F)(F)F` [1-butyl-3-methylimidazolium hexafluorophosphate] + CCCCCCC, for which the interfacial tension was 14.81 ± 0.32 mN/m (283.15 K); 14.69 ± 0.32 mN/m (293.15 K); 14.67 ± 0.32 mN/m (303.15 K); 14.59 ± 0.32 mN/m (313.15 K); 14.5 ± 0.32 mN/m (323.15 K); 14.41 ± 0.32 mN/m (333.15 K).
On to `CCCCCCn1cc[n+](C)c1.F[P-](F)(F)(F)(F)F` [1-hexyl-3-methylimidazolium hexafluorophosphate] + CCCCCC, for which the interfacial tension is, setting by setting: (283.15 K) 9.01 ± 0.26 mN/m; (293.15 K) 8.9 ± 0.26 mN/m; (303.15 K) 8.83 ± 0.26 mN/m; (313.15 K) 8.84 ± 0.26 mN/m; (323.15 K) 8.73 ± 0.26 mN/m; (333.15 K) 8.68 ± 0.26 mN/m.
With `CCCCCCn1cc[n+](C)c1.F[P-](F)(F)(F)(F)F` [1-hexyl-3-methylimidazolium hexafluorophosphate] + CCCCCCC, the interfacial tension was 8.86 ± 0.26 mN/m (283.15 K); 8.74 ± 0.26 mN/m (293.15 K); 8.73 ± 0.26 mN/m (303.15 K); 8.69 ± 0.26 mN/m (313.15 K); 8.54 ± 0.26 mN/m (323.15 K); 8.47 ± 0.26 mN/m (333.15 K).
Take `CCCCCn1cc[n+](C)c1.F[P-](F)(F)(F)(F)F` [1-methyl-3-pentylimidazolium hexafluorophosphate] + CCCCCC: the interfacial tension was 12.37 ± 0.3 mN/m (283.15 K); 11.92 ± 0.29 mN/m (293.15 K); 12 ± 0.29 mN/m and 11.93 ± 0.29 mN/m (313.15 K); 11.78 ± 0.29 mN/m (323.15 K); 11.67 ± 0.29 mN/m (333.15 K).
In the case of `CCCCCn1cc[n+](C)c1.F[P-](F)(F)(F)(F)F` [1-methyl-3-pentylimidazolium hexafluorophosphate] + CCCCCCC, the interfacial tension stood at 12.23 ± 0.3 mN/m (283.15 K); 12.12 ± 0.29 mN/m (293.15 K); 12.02 ± 0.29 mN/m (303.15 K); 11.9 ± 0.29 mN/m (313.15 K); 11.63 ± 0.29 mN/m (323.15 K); 11.53 ± 0.29 mN/m (333.15 K).
As for `CCCCCCCC[n+]1ccn(C)c1.F[P-](F)(F)(F)(F)F` [1-octyl-3-methylimidazolium hexafluorophosphate] + CCCCCC, the interfacial tension came out at 4.89 ± 0.23 mN/m (283.15 K); 4.77 ± 0.23 mN/m (293.15 K); 4.66 ± 0.23 mN/m (303.15 K); 4.52 ± 0.22 mN/m (313.15 K); 4.45 ± 0.22 mN/m (323.15 K); 4.46 ± 0.22 mN/m (333.15 K).
